In patent publication US5681832A, “Aroylaniline compounds, pharmaceutical compositions, and methods of using same to inhibit viral activity” (priority 1995, dated 1997):
Counter-ions that a name gives are not always drawn. Like-named read-outs stand apart in the source and are kept apart here.

Assays:
HIV-1 = assay: in vitro anti-HIV screening (NCI XTT soluble-formazan assay, protection of HIV-1-infected CEM T4 lymphocytes from cytolysis); assay type: cell-based; settings: for EC50: HIV-1-infected CEM cells, 6 days, approximate values, read-out: EC50 (Molar), 50% effective concentration; for inhibition at 63.2 µM / inhibition at 200 µM / inhibition at 20 µM / inhibition at 2 µM / inhibition at 0.2 µM / inhibition at 6.33 µM / inhibition at 0.634 µM / inhibition at 0.0635 µM: read-out: Percent of Protection; for inhibition at 2 µM / activity at 2 µM: 2.00 × 10^-6 Molar; for inhibition at 0.2 µM / activity at 0.2 µM: 2.00 × 10^-7 Molar; for inhibition at 6.33 µM / activity at 6.33 µM: 6.33 × 10^-6 Molar; for inhibition at 0.634 µM / activity at 0.634 µM: 6.34 × 10^-7 Molar; for inhibition at 0.0635 µM / activity at 0.0635 µM: 6.35 × 10^-8 Molar; for TI50 (IC/EC), therapeutic index: IC50/EC50; for Conclusion: NCI anti-HIV screen
Text: The aroylaniline compounds of the present invention were subjected to in vitro screening to determine their anti-HIV activity.
The National Cancer Institute's procedure for testing for agents active against Human Immunodeficiency Virus (HIV) (Weislow, O. W. et al., "New soluble-formazan assay for HIV-1 cytopathic effects: application to high-flux screening of synthetic and natural products for AIDS-antiviral activity," J. Natl Cancer Inst., 81, 577-586 (1989)) is designed to detect agents acting at any stage of the virus reproductive cycle. The assay includes the killing of T4 lymphocytes by HIV. Pursuant to the test, small amounts of HIV are added to cells, and a complete cycle of virus reproduction is necessary to obtain the required cell killing. Agents that interact with virions, cells, or virus gene-products to interfere with viral activities will protect cells from cytolysis. The system is thus designed to detect anti-HIV activity. However, compounds that are chemically labile or are rapidly metabolized in the culture conditions may not show activity in this screen. All tests are compared with at least one positive (e.g., AZT-treated) control done at the same time under identical conditions.
(§1) 1. Candidate agent is dissolved in dimethyl sulfoxide (unless otherwise instructed) and then diluted 1:100 in cell culture medium before preparing serial half-log10 dilutions which are then to 96-well microfilter plates. T4 lymphocytes (CEM cell line) are added, and after a brief interval HIV-1 is added to all wells, resulting in a 1:200 final dilution […]. Uninfected cells with the compound serve as a toxicity control, and infected and uninfected cells without the compound serve as basic controls.
(§2) 2. Cultures are incubated at 37° C. in a 5% carbon dioxide atmosphere for 6 days.
(§3) 3. The tetrazolium salt, XTT, is added to all wells, and cultures are incubated to allow formazan color development by viable cells.
(§4) 4. Individual wells are analyzed spectrophotometrically to quantitate formazan production, and in addition are viewed microscopically for detection of viable cells and confirmation of protective activity.
(§5) 5. Drug-tested virus-infected cells are compared with drug-treated noninfected cells and with other appropriate controls (untreated infected and untreated noninfected cells, drug-containing wells without cells, etc.) on the same plate.
6. Data are reviewed in comparison with other tests done at the same time and a determination about activity is made.
The aroylaniline compounds of the present invention were tested for anti-HIV activity according to the above procedure. FIGS. 1-6 represent test results of the aroylaniline compounds of Compounds 1, 3, 13, 14, 29 and 32.
(§6) FIGS. 1 to 6 display a plot of the log10 of the concentrations (as μg/mL or molar as shown) of the aroylaniline compounds, Compounds 1, 3, 13, 14, 29 and 32, against the measured test values expressed as a percentage of the uninfected, untreated control values. The solid line depicts the percentage of surviving HIV-infected cells treated with sample (at the indicated concentration) relative to uninfected, untreated controls. Thus, the solid line expresses the anti-HIV activity of the compound. The dashed line depicts the percentage of surviving uninfected cells treated with the compound relative to the same uninfected, untreated controls. Thus, the dashed line expresses the growth inhibitory properties of the compound. The viral cytopathic effect […] is indicated by a dotted reference line. […] Survival values of this parameter less than 50% are considered acceptable in the current protocol. Approximate values for 50% effective concentration (EC50) have been calculated for each test and are set forth for these Compounds in Tables 2-7, respectively.

[1] = test system: T4 lymphocytes (CEM cell line); assay: toxicity control: survival of uninfected T4 lymphocytes (CEM cell line) treated with compound (growth inhibition); assay type: cell-based; settings: for IC50: read-out: IC50 (Molar); for activity at 0.0635 µM / activity at 0.2 µM / activity at 0.634 µM / activity at 2 µM / activity at 6.33 µM / activity at 20 µM / activity at 63.2 µM / activity at 200 µM: read-out: Percent of Control, Uninfected
Description: as §1, §2, §3, §4, §5, §6

[2] = Human immunodeficiency virus 1, CCRF-CEM, 144 h
[3] = Human immunodeficiency virus 1, CCRF-CEM
[4] = Human immunodeficiency virus 1, CCRF-CEM, 2.00 × 10^-4 Molar
[5] = Human immunodeficiency virus 1, CCRF-CEM, 2.00 × 10^-5 Molar
[6] = Human immunodeficiency virus 1, CEM-T4, read-out: Percent of Control, Infected
[7] = Human immunodeficiency virus 1, CEM-T4, 2.00 × 10^-4 Molar, read-out: Percent of Control, Infected
[8] = Human immunodeficiency virus 1, CEM-T4, 2.00 × 10^-5 Molar, read-out: Percent of Control, Infected

O=C(O)CCSCc1cc(C(=O)Nc2ccc(C=Cc3ccc(NC(=O)c4cc(CSCCC(=O)O)c5cccnc5c4O)cc3S(=O)(=O)O)c(S(=O)(=O)O)c2)c(O)c2ncccc12 [Compound 13, 4,4'-di[5-(2-carboxyethylthiomethyl)-8-hydroxy-7-quinolinecarboxyamido]stilbene-2,2'-disulfonic acid tetrasodium salt]
EC50 (HIV-1; [2]): 1.05 µM | inhibition at 63.2 µM (HIV-1; [3]): 29.4% | inhibition at 200 µM (HIV-1; [4]): -28% | inhibition at 20 µM (HIV-1; [5]): 67.5% | inhibition at 2 µM (HIV-1; [3]): 84.4% | inhibition at 0.2 µM (HIV-1; [3]): -17.9% | inhibition at 6.33 µM (HIV-1; [3]): 134% | inhibition at 0.634 µM (HIV-1; [3]): 24.6% | inhibition at 0.0635 µM (HIV-1; [3]): 15.6% | activity at 63.2 µM (HIV-1; [6]): 1.63% | activity at 200 µM (HIV-1; [7]): 2.7% | activity at 20 µM (HIV-1; [8]): 75.3% | activity at 2 µM (HIV-1; [6]): 88.1% | activity at 0.2 µM (HIV-1; [6]): 10.4% | activity at 6.33 µM (HIV-1; [6]): 126% | activity at 0.634 µM (HIV-1; [6]): 42.7% | activity at 0.0635 µM (HIV-1; [6]): 35.8% | TI50 (IC/EC), therapeutic index (HIV-1): 2.78 × 10^+1 | Conclusion (HIV-1): CONFIRMED ACTIVE | IC50 ([1]; Homo sapiens, CCRF-CEM, 144 h): 29 µM | activity at 0.0635 µM ([1]; Homo sapiens, CCRF-CEM): 86.4% | activity at 0.2 µM ([1]; Homo sapiens, CCRF-CEM): 90.5% | activity at 0.634 µM ([1]; Homo sapiens, CCRF-CEM): 92.2% | activity at 2 µM ([1]; Homo sapiens, CCRF-CEM): 111% | activity at 6.33 µM ([1]; Homo sapiens, CCRF-CEM): 118% | activity at 20 µM ([1]; Homo sapiens, CCRF-CEM): 73.7% | activity at 63.2 µM ([1]; Homo sapiens, CCRF-CEM): 0.37% | activity at 200 µM ([1]; Homo sapiens, CCRF-CEM): 2.05%

O=C([O-])c1c(O)ccc(O)c1C(=O)Nc1ccc(C=Cc2ccc(NC(=O)c3c(O)ccc(O)c3C(=O)[O-])cc2S(=O)(=O)O)c(S(=O)(=O)O)c1.[Na+].[Na+] [Compound 29, 4,4'-di(2-carboxy-3,6-dihydroxybenzamido)stilbene-2,2'-disulfonic acid disodium salt]
EC50 (HIV-1; [2]): 12.5 µM | inhibition at 200 µM (HIV-1; [4]): 79.7% | inhibition at 20 µM (HIV-1; [5]): 83.3% | inhibition at 2 µM (HIV-1; [3]): 0.58% | inhibition at 0.2 µM (HIV-1; [3]): -1.09% | inhibition at 63.2 µM (HIV-1; Human immunodeficiency virus 1, CCRF-CEM, 6.32 × 10^-5 Molar): 92.7% | inhibition at 6.33 µM (HIV-1; [3]): 2.47% | inhibition at 0.634 µM (HIV-1; [3]): -0.52% | inhibition at 0.0635 µM (HIV-1; [3]): -3.31% | activity at 200 µM (HIV-1; [7]): 81.1% | activity at 20 µM (HIV-1; [8]): 84.5% | activity at 2 µM (HIV-1; [6]): 7.54% | activity at 0.2 µM (HIV-1; [6]): 5.99% | activity at 63.2 µM (HIV-1; Human immunodeficiency virus 1, CEM-T4, 6.32 × 10^-5 Molar, read-out: Percent of Control, Infected): 93.2% | activity at 6.33 µM (HIV-1; [6]): 9.3% | activity at 0.634 µM (HIV-1; [6]): 6.52% | activity at 0.0635 µM (HIV-1; [6]): 3.92% | TI50 (IC/EC), therapeutic index (HIV-1): > 1.61 × 10^+1 | Conclusion (HIV-1): CONFIRMED ACTIVE | IC50 ([1]; Homo sapiens, CCRF-CEM, 144 h): > 220 µM | activity at 0.0635 µM ([1]; Homo sapiens, CCRF-CEM): 93.2% | activity at 0.2 µM ([1]; Homo sapiens, CCRF-CEM): 93.8% | activity at 0.634 µM ([1]; Homo sapiens, CCRF-CEM): 92.8% | activity at 2 µM ([1]; Homo sapiens, CCRF-CEM): 95.2% | activity at 6.33 µM ([1]; Homo sapiens, CCRF-CEM): 96.7% | activity at 20 µM ([1]; Homo sapiens, CCRF-CEM): 99% | activity at 63.2 µM ([1]; Homo sapiens, CCRF-CEM): 100% | activity at 200 µM ([1]; Homo sapiens, CCRF-CEM): 93%

N,N'-Bis(4-amino-2-sulfobenzoyl)-4,4'-diaminostilbene-2,2-disulfonic acid tetrasodium salt [Compound 32]
Percent of Control, Infected (HIV-1; 2.00 × 10^-4 Molar): 61.85% | Percent of Protection (HIV-1; 2.00 × 10^-4 Molar, 200 µM): 52.90% | Percent of Control, Infected (HIV-1; 2.00 × 10^-5 Molar): 112.68% | Percent of Protection (HIV-1; 2.00 × 10^-5 Molar, 20 µM): 115.65% | Percent of Control, Infected (HIV-1; 2.01 × 10^-6 Molar): 97.97% | Percent of Protection (HIV-1; 2.01 × 10^-6 Molar, 2.01 µM): 97.49% | Percent of Control, Infected (HIV-1; 2.01 × 10^-7 Molar): 14.10% | Percent of Protection (HIV-1; 2.01 × 10^-7 Molar, 0.201 µM): -6.05% | Percent of Control, Infected (HIV-1; 6.33 × 10^-5 Molar): 115.38% | Percent of Protection (HIV-1; 6.33 × 10^-5 Molar, 63.3 µM): 118.99% | Percent of Control, Infected (HIV-1; 6.34 × 10^-6 Molar): 105.65% | Percent of Protection (HIV-1; 6.34 × 10^-6 Molar, 6.34 µM): 106.98% | Percent of Control, Infected (HIV-1; 6.35 × 10^-7 Molar): 26.85% | Percent of Protection (HIV-1; 6.35 × 10^-7 Molar, 0.635 µM): 9.69% | Percent of Control, Infected (HIV-1; 6.36 × 10^-8 Molar): 17.12% | Percent of Protection (HIV-1; 6.36 × 10^-8 Molar, 0.0636 µM): -2.32% | EC50 (HIV-1): 1.08 µM | Conclusion (HIV-1): CONFIRMED ACTIVE | Percent of Control, Uninfected ([1]; 2.00 × 10^-4 Molar): 35.45% | Percent of Control, Uninfected ([1]; 2.00 × 10^-5 Molar): 98.84% | Percent of Control, Uninfected ([1]; 2.01 × 10^-6 Molar): 98.97% | Percent of Control, Uninfected ([1]; 2.01 × 10^-7 Molar): 82.40% | Percent of Control, Uninfected ([1]; 6.33 × 10^-5 Molar): 95.50% | Percent of Control, Uninfected ([1]; 6.34 × 10^-6 Molar): 94.34% | Percent of Control, Uninfected ([1]; 6.35 × 10^-7 Molar): 95.11% | Percent of Control, Uninfected ([1]; 6.36 × 10^-8 Molar): 83.94% | IC50 ([1]; uninfected CEM cells, 6 days): 151 µM
